{"source": "patent US11850273B2", "about": "“Chemical reprogramming of human glial cells into neurons for brain and spinal cord repair” (The Penn State Research Foundation, priority 2014, dated 2023)", "test_system": "human astrocyte-converted neurons", "experiment": "Patch clamp whole-cell recordings of human astrocyte-converted neurons", "data": [{"substance": "DNQX", "values": [{"measurement": "effect on spontaneous burst activities", "result": "abolished"}]}]}
